US12060360B2, “Lysyl oxidase inhibitors” (The Institute of Cancer Research: Royal Cancer Hospital, priority 2017, dated 2024)

Assays:
[1] = biological target: T1, LOX (Mus musculus, UniProt P28301); test: LOX activity in cysts assay (LOX-roGFP2 biosensor, MDCK cysts); type: cell-based; settings: MDCK cysts; for IC50: roGFP2 ratio at basal surface, read-out: LOX biosensor IC50 (cyst)
T1 construct: Full length LOX cDNA was then PCR cloned into pEGFP-N1 (Clonetech), or biosensor vector proGFP2-N1; expressed in transfected cells; host or cells: MDCK cells grown as cysts on Matrigel, G418-selected
T1 sequence (P28301 163-411): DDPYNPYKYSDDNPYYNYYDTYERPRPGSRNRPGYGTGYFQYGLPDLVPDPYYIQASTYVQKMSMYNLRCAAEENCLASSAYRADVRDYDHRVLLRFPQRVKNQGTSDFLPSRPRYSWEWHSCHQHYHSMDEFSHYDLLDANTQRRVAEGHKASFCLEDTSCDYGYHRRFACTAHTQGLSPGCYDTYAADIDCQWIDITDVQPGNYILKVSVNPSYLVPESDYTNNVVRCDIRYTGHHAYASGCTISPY
Method in brief: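 Live MDCK cysts grown 10 days on Matrigel and expressing mouse LOX fused to the roGFP2 redox biosensor, with inhibitors added 30 min before confocal imaging. Oxidised/reduced ratio (405/488 nm excitation, 500–530 nm emission) at the basal cyst surface taken as LOX activity. DMSO defines 0% and 1 mM BAPN 100% inhibition.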

[2] = system: PDAC TRP53R172H (p53 mut) cells (mouse pancreatic carcinoma); test: PDAC allografts, primary tumour volume T/C; type: in vivo; settings: ratio of average tumour volume treated/vehicle control, p<0.05
Experimental: (§1) All procedures involving animals were approved by the Animal Welfare and Ethical Review Body of the Institute of Cancer Research and Cancer Research UK Manchester Institute in accordance with National Home Office regulations under the Animals (Scientific Procedures) Act 1986 and according to the guidelines of the Committee of the National Cancer Research Institute Tumour size was determined by caliper measurements of tumour length, width and depth and volume was calculated as volume=0.5236×length×width×depth (mm).
PDAC allografts: CD1 nu/nu female mice at 6 weeks of age were inoculated subcutaneously in the right flank with 2×10^6 PDAC TRP53R172H (p53 mut) cells at 100 ul suspension per animal. In some examples, the oral dosing by metal gavage commences one day after cells inoculation, at 0.2 ml/20 g bodyweight per animal once daily for 2-4 weeks, with compound dissolved in 5.25% tween20/saline or 5% DMSO/water. In other examples, groups of 7-8 mice were assigned to treatment following stratified allocation of tumour volumes with a median size of circa 100 mm^3. […] Control animals received a similar dosage of vehicle (5.25% tween20/saline). Tumours and weights are measured twice weekly using calipers. At the end of the study the animals are culled, and samples taken, fixed or snap frozen in liquid nitrogen. Frozen samples kept at −80 degree centigrade until being analysed and the fixed samples stained according to the desired marker.
(§2) For therapeutic efficacy assessment, the ratio of average tumour volume between compound treated and vehicle control treated (T/C) is calculated. Reduction in tumour volume in the compound treated group compared to vehicle-treated control group results in T/C<1. The efficacy of LOX inhibitors described in this invention, as measured by T/C in a pancreatic cancer model, a colorectal cancer model and a breast cancer model is shown in Table 2 and is significant (p<0.05) for all the data presented.

[3] = system: MDA-MB-231 human breast adenocarcinoma; test: MDA-MB-231 xenografts, primary tumour volume T/C; type: in vivo; settings: 200 mg/kg po qd, ratio of average tumour volume treated/vehicle control, p<0.05
Experimental: as §1
MDA-MB-231 xenografts. Ncr nude female mice at 6 weeks old from Charles River were injected into the third upper nipple mammary fat pad with MDA-MB-231 Luc 4×10^6 in 100 ul PB (50:50 Matrigel). When tumours reach a mean of 80 mm^3 around 10 days post cell inoculation the animals are allocated in 4 groups of 8. LOX inhibitor treatment is then administrated by oral gavage dosing, at 0.2 ml/20 g bodyweight once daily for up to 28 consecutive days. Tumours and weights are measured twice weekly using calipers and the animals can be imaged using non invasive method by bioluminescence using IVIS 200 imaging machine, weekly using 150 mg/kg luciferin administrate intraperitoneal or subcutaneous. At the end of the study the animals are culled, and samples taken, fixed or snap frozen in liquid nitrogen. Frozen samples kept at −80 degree centigrade until being analyzed and the fixed samples stained according to desired marker.
as §2

[4] = system: MMTV-PyMT breast transgenic model primary tumour; test: MMTV-PyMT transgenic mouse breast cancer model, primary tumour T/C; type: in vivo; settings: 200 mg/kg po qd; ratio of average tumour volume treated/vehicle control; p<0.05
Experimental: as §1
(§3) MMTV-PyMT (Guy et al, 1992) (FVB) female mice were randomized by non-statistical methods to LOX inhibitor treatment groups from day 70 post-birth, when animals had no detectable tumour. Mice were treated daily by oral gavage with LOX inhibitor in vehicle, or daily vehicle (5% DMSO/2.5% Tween20 in water) by oral gavage. Tumour size was determined unblinded by caliper measurements of tumour length, width and depth and volume was calculated as 0.5236×length×width×depth (mm). In all experiments, mice were humanely killed and mammary tumours and lungs were collected when the primary tumours reached ethical limits or signs of ill health.
as §2

[5] = system: SW620 human colorectal carcinoma cells (mutant RAS); test: SW620 xenografts, primary tumour volume T/C; type: in vivo; settings: 200 mg/kg po qd; ratio of average tumour volume treated/vehicle control; p<0.05
Experimental: as §1
SW620 xenografts: NCr mice were inoculated subcutaneously in the right flank with 5×10^6 SW620 cells at 100 ul suspension per animal. Groups of 7-8 mice were assigned to treatment following stratified allocation of tumour volumes with a median size of circa 100 mm^3. […] Tumours and weights are measured twice weekly using calipers. […] Frozen samples are kept at −80 degree centigrade until being analysed and the fixed samples stained according to the desired marker.
For therapeutic efficacy assessment, the ratio of average tumour volume between compound treated and vehicle control treated (T/C) is calculated. […] The efficacy of LOX inhibitors described in this invention, as measured by T/C in a pancreatic cancer model, a colorectal cancer model and a breast cancer model is shown in Table 2 and is significant (p<0.05) for all the data presented.

[6] = system: MMTV-PyMT breast transgenic model lung metastases; test: MMTV-PyMT transgenic mouse breast cancer model, lung metastases quantification T/C; type: in vivo; settings: 200 mg/kg po qd, treated/vehicle control, p<0.05
Experimental: as §3
For lung metastases quantification, all mouse tissue samples were fixed in 10% formalin (Sigma) and embedded in paraffin. Samples were sectioned and hematoxylin and eosin (H&E) stained. Samples were imaged with a Leica CN400 slide scanner. Lung metastases were manually selected using Pen tool in ImageScope. Lung metastases number was counted and area was measured using ImageScope. The investigator was blinded to the experimental groups. The ratio of average metastases surface between compound treated and vehicle control treated (TIC) is calculated. The ratio of average metastases numbers between compound treated and vehicle control treated (T/C) is also calculated. Reduction in metastases area and/or in metastatses number in the compound treated group compared to vehicle-treated control group results in T/C<1. The antimetastatic efficacy of LOX inhibitors described in this invention, as measured by T/C in a model of breast cancer metastasising to lungs is shown in Table 2 and is significant (p<0.05) for all the data presented.

| SMILES | IC50 [1] [nM] | T/C PDAC R172H (p53 mut) (mouse pancreatic carcinoma) - primary tumour ([2]; 100 mg/kg bid) | response vs control in vivo at 200 mg/kg [3] [%] | T/C PDAC R172H (p53 mut) (mouse pancreatic carcinoma) - primary tumour ([2]; 200 mg/kg po qd) | T/C MMT-PyMT breast transgenic model - primary tumour [4] | inhibition at 2.5 µM ([1]; 2.5 uM (stated in cell), DMSO = 0%, BAPN 1 mM = 100% inhibition, read-out: LOX biosensor inhibition (cyst) @ 2.5 uM) [%] | T/C SW620 human colorectal carcinoma cells (mutant RAS) - primary tumour [5] | T/C MMT-PyMT breast transgenic model - metastases b) Area ([6]; lung metastases area) | T/C MMT-PyMT breast transgenic model - metastases a) Count ([6]; lung metastases number) |
| --- | --- | --- | --- | --- | --- | --- | --- | --- | --- |
| CCOc1ccc(N2C[C@H]3CN(C(=O)NCCS(C)(=O)=O)C[C@@H]2C(C)(C)C3)cc1 [Example 13, (1S,5S)-6-(4-ethoxyphenyl)-9,9-dimethyl-N-(2-(methylsulfonyl)ethyl)-3,6-diazabicyclo[3.2.2]nonane-3-carboxamide] | 1020 | 0.56 | 63 |  |  |  |  |  |  |
| CCOc1ccc(N2C[C@H]3CN(C(=O)NCCO)C[C@@H]2C(C)(C)C3)cc1 [Example 12, (1S,5S)-N-(2-hydroxyethyl)-6-(4-ethoxyphenyl)-9,9-dimethyl-3,6-diazabicyclo[3.2.2]nonane-3-carboxamide] | 890 |  |  | 0.47 | 0.26 |  |  |  |  |
| CC1(C)C[C@@H]2CN(C(=O)N3CCS(=O)(=O)CC3)C[C@H]1N(c1ccc(N3CCS(=O)(=O)CC3)cc1)C2 [Example 8, (1,1-dioxidothiomorpholino)((1S,5S)-6-(4-(1,1-dioxidothiomorpholino)phenyl)-9,9-dimethyl-3,6-diazabicyclo[3.2.2]nonan-3-yl)methanone] | 540 |  | 54 |  | 0.22 | 100 | 0.48 | b) 0.012 | a) 0.1 |
| CCOc1ccc(N2C[C@H]3CN(C(=O)NCCc4c[nH]cn4)C[C@@H]2C(C)(C)C3)cc1 [Example 26, (1S,5S)-N-(2-(1H-imidazol-4-yl)ethyl)-6-(4-ethoxyphenyl)-9,9-dimethyl-3,6-diazabicyclo[3.2.2]nonane-3-carboxamide] | 340 |  |  | 0.46 |  |  |  |  |  |
